The values below come from patent US20100004253A1, “BIOMARKERS OF TARGET MODULATION, EFFICACY, DIAGNOSIS AND/OR PROGNOSIS FOR RAF INHIBITORS” (Novartis AG, priority 2006, published 2010).

Each structure is given as a SMILES string.

In experiment [1] the test system is A375M xenograft. The experiment is described as follows: Mutant B-Raf xenograft model. It counts as in vivo.
Experiment [2] concerns MEXF276 xenograft. The experiment is described as follows: Mutant B-Raf xenograft model. It counts as in vivo.
Experiment [3] relates to HT29 xenograft. In words: Mutant B-Raf xenograft model. It counts as in vivo.
The test system of experiment [4] is HCT116 xenograft. In words: K-Ras driven xenograft model. It counts as in vivo. From the text: […]. […] […].
Experiment [5] has as its system A375M melanoma xenograft tumors. The experiment is described as follows: mRNA microarray profiling of A375M xenograft tumors. It counts as in vivo, mice. The settings on record: 100 mg/kg orally every other day; 783 probesets; Table IX.
The subject of experiment [6] is SKMEL28. The settings on record: SKMEL28, mutant B-Raf cell line.
Experiment [7] concerns A2058. The settings on record: A2058, mutant B-Raf cell line.
For experiment [8], the system named is G361. The following applies: G361, mutant B-Raf cell line.
In experiment [9] the test system is COLO205. The following applies: COLO205, mutant B-Raf cell line.
Experiment [10] deals with SKMEL31. The settings on record: SKMEL31, mutant B-Raf cell line.
Experiment [11] concerns MALME-3M. The settings on record: mutant B-Raf cell line.
In experiment [12] the test system is SW620. The settings on record: SW620, K-Ras cell line.
The test system of experiment [13] is SKMEL2. The settings on record: SKMEL2, N-Ras cell line.
In experiment [14] the test system is MEK target phosphorylation and signaling molecules downstream from Raf (BIM, Cyclin D1, p27Kip, pAKT). The following applies: preclinical models.

Turning to `Cn1c(Nc2ccc(C(F)(F)F)cc2)nc2cc(Oc3ccnc(-c4ncc(C(F)(F)F)[nH]4)c3)ccc21` [CHIR-265, {1-Methyl-5-[2-(5-trifluoromethyl-1H-imidazol-2-yl)-pyridin-4-yloxy]-1H benzoimidazol-2-yl}-(4-trifluoromethyl-phenyl)-amine], the effect on tumor entry in [1] is listed as “tumor regression”; in experiment [2] it was “tumor regression”; in experiment [3] it was “tumor regression”; in [4], “tumor growth inhibition”. In addition, in [5], the “number of genes significantly differential, alternate analysis method (six queries, p<0.005)” value is given as 609 genes. For the same compound, the “inhibition of the Raf pathway” value in experiment [6], in [7], in experiment [8], in experiment [9], in [10] and in experiment [11] was “inhibition of the Raf pathway” in each case. For the same compound, the “inhibition of the Raf pathway” value in experiment [12] and in experiment [13] was “inhibition of the Raf pathway” in each case. Also, the “inhibition of MEK target phosphorylation and signaling molecules downstream from Raf in the MAPK pathway” value in [14] is “dose and time dependent inhibition”.
